Assay results from patent US8192962B2, “Processes for detecting toxic substances” (Daikin Industries, Ltd., priority 2001, dated 2012).

System: Unknown protein yeast genes
Experiment: DNA chip mRNA expression in yeast, unknown protein yeast genes (Table 1)
Assay type: cell-based, Saccharomyces cerevisiae S288C
In short: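 Ratios compare mRNA levels in stressed and control S. cerevisiae. Each toxicant was applied for two hours to log-phase cultures at 25° C. at a sub-lethal, growth-inhibiting level; fluorescent cDNA (Cy3- or Cy5-dUTP) was hybridized to a genome-wide yeast chip for over 12 h at 65° C.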

O=[N+]([O-])c1cc[n+]([O-])c2ccccc12 [(5), 4-nitroquinolin-N-oxide]
The level of expressed mRNA in the presence of chemical substance/The level of expressed mRNA in the absence of chemical substance (yeast gene YKL071W): 1.1 | The level of expressed mRNA in the presence of chemical substance/The level of expressed mRNA in the absence of chemical substance (yeast gene YKL086W, incubated two hours with chemical substance): 0.8 | The level of expressed mRNA in the presence of chemical substance/The level of expressed mRNA in the absence of chemical substance (yeast gene YKL151C, incubated two hours with chemical substance): 1.0 | The level of expressed mRNA in the presence of chemical substance/The level of expressed mRNA in the absence of chemical substance (yeast gene YKL153W, incubated two hours with chemical substance): 1.0 | The level of expressed mRNA in the presence of chemical substance/The level of expressed mRNA in the absence of chemical substance (yeast gene YKL195W, incubated two hours with chemical substance): 1.9 | The level of expressed mRNA in the presence of chemical substance/The level of expressed mRNA in the absence of chemical substance (yeast gene YKR091W, incubated two hours with chemical substance): 1.6 | The level of expressed mRNA in the presence of chemical substance/The level of expressed mRNA in the absence of chemical substance (yeast gene YLR054C, incubated two hours with chemical substance): 1.3 | The level of expressed mRNA in the presence of chemical substance/The level of expressed mRNA in the absence of chemical substance (yeast gene YLR149C, incubated two hours with chemical substance): 0.8 | The level of expressed mRNA in the presence of chemical substance/The level of expressed mRNA in the absence of chemical substance (yeast gene YLR152C, incubated two hours with chemical substance): 1.1 | The level of expressed mRNA in the presence of chemical substance/The level of expressed mRNA in the absence of chemical substance (yeast gene YLR194C, incubated two hours with chemical substance): 1.0 | The level of expressed mRNA in the presence of chemical substance/The level of expressed mRNA in the absence of chemical substance (yeast gene YLR324W, incubated two hours with chemical substance): 1.3 | The level of expressed mRNA in the presence of chemical substance/The level of expressed mRNA in the absence of chemical substance (yeast gene YLR339C): 1.3 | The level of expressed mRNA in the presence of chemical substance/The level of expressed mRNA in the absence of chemical substance (yeast gene YLR350W, incubated two hours with chemical substance): 0.8 | The level of expressed mRNA in the presence of chemical substance/The level of expressed mRNA in the absence of chemical substance (yeast gene YLR387C, incubated two hours with chemical substance): 1.3 | The level of expressed mRNA in the presence of chemical substance/The level of expressed mRNA in the absence of chemical substance (yeast gene YLR460C): 1.3 | The level of expressed mRNA in the presence of chemical substance/The level of expressed mRNA in the absence of chemical substance (yeast gene YML117W, incubated two hours with chemical substance): 0.8 | The level of expressed mRNA in the presence of chemical substance/The level of expressed mRNA in the absence of chemical substance (yeast gene YMR007W): 1.3 | The level of expressed mRNA in the presence of chemical substance/The level of expressed mRNA in the absence of chemical substance (yeast gene YMR009W, incubated two hours with chemical substance): 1.9 | The level of expressed mRNA in the presence of chemical substance/The level of expressed mRNA in the absence of chemical substance (yeast gene YMR067C, incubated two hours with chemical substance): 1.1 | The level of expressed mRNA in the presence of chemical substance/The level of expressed mRNA in the absence of chemical substance (yeast gene YMR090W): 0.7 | The level of expressed mRNA in the presence of chemical substance/The level of expressed mRNA in the absence of chemical substance (yeast gene YMR095C, incubated two hours with chemical substance): 0.9 | The level of expressed mRNA in the presence of chemical substance/The level of expressed mRNA in the absence of chemical substance (yeast gene YMR097C, incubated two hours with chemical substance): 0.7 | The level of expressed mRNA in the presence of chemical substance/The level of expressed mRNA in the absence of chemical substance (yeast gene YMR102C, incubated two hours with chemical substance): 1.2 | The level of expressed mRNA in the presence of chemical substance/The level of expressed mRNA in the absence of chemical substance (yeast gene YMR107W, incubated two hours with chemical substance): 1.1 | The level of expressed mRNA in the presence of chemical substance/The level of expressed mRNA in the absence of chemical substance (yeast gene YMR180C, incubated two hours with chemical substance): 1.0 | The level of expressed mRNA in the presence of chemical substance/The level of expressed mRNA in the absence of chemical substance (yeast gene YMR184W, incubated two hours with chemical substance): 0.8 | The level of expressed mRNA in the presence of chemical substance/The level of expressed mRNA in the absence of chemical substance (yeast gene YMR191W, incubated two hours with chemical substance): 1.5 | The level of expressed mRNA in the presence of chemical substance/The level of expressed mRNA in the absence of chemical substance (yeast gene YMR295C, incubated two hours with chemical substance): 1.4 | The level of expressed mRNA in the presence of chemical substance/The level of expressed mRNA in the absence of chemical substance (yeast gene YMR316W, incubated two hours with chemical substance): 1.1 | The level of expressed mRNA in the presence of chemical substance/The level of expressed mRNA in the absence of chemical substance (yeast gene YNL044W, incubated two hours with chemical substance): 1.2 | The level of expressed mRNA in the presence of chemical substance/The level of expressed mRNA in the absence of chemical substance (yeast gene YNL074C, incubated two hours with chemical substance): 1.3 | The level of expressed mRNA in the presence of chemical substance/The level of expressed mRNA in the absence of chemical substance (yeast gene YNL092W, incubated two hours with chemical substance): 0.9 | The level of expressed mRNA in the presence of chemical substance/The level of expressed mRNA in the absence of chemical substance (yeast gene YNL115C, incubated two hours with chemical substance): 0.8 | The level of expressed mRNA in the presence of chemical substance/The level of expressed mRNA in the absence of chemical substance (yeast gene YNL156C, incubated two hours with chemical substance): 1.6 | The level of expressed mRNA in the presence of chemical substance/The level of expressed mRNA in the absence of chemical substance (yeast gene YNL234W, incubated two hours with chemical substance): 1.7 | The level of expressed mRNA in the presence of chemical substance/The level of expressed mRNA in the absence of chemical substance (yeast gene YNL281W, incubated two hours with chemical substance): 1.7 | The level of expressed mRNA in the presence of chemical substance/The level of expressed mRNA in the absence of chemical substance (yeast gene YNL305C, incubated two hours with chemical substance): 1.3 | The level of expressed mRNA in the presence of chemical substance/The level of expressed mRNA in the absence of chemical substance (yeast gene YNR068C, incubated two hours with chemical substance): 1.7 | The level of expressed mRNA in the presence of chemical substance/The level of expressed mRNA in the absence of chemical substance (yeast gene YOL032W, incubated two hours with chemical substance): 1.4 | The level of expressed mRNA in the presence of chemical substance/The level of expressed mRNA in the absence of chemical substance (yeast gene YOL036W, incubated two hours with chemical substance): 1.2 | The level of expressed mRNA in the presence of chemical substance/The level of expressed mRNA in the absence of chemical substance (yeast gene YOL047C, incubated two hours with chemical substance): 1.4 | The level of expressed mRNA in the presence of chemical substance/The level of expressed mRNA in the absence of chemical substance (yeast gene YOL071W, incubated two hours with chemical substance): 0.9 | The level of expressed mRNA in the presence of chemical substance/The level of expressed mRNA in the absence of chemical substance (yeast gene YOL082W, incubated two hours with chemical substance): 1.5 | The level of expressed mRNA in the presence of chemical substance/The level of expressed mRNA in the absence of chemical substance (yeast gene YOL083W, incubated two hours with chemical substance): 1.4 | The level of expressed mRNA in the presence of chemical substance/The level of expressed mRNA in the absence of chemical substance (yeast gene YOL117W, incubated two hours with chemical substance): 1.7 | The level of expressed mRNA in the presence of chemical substance/The level of expressed mRNA in the absence of chemical substance (yeast gene YOL131W, incubated two hours with chemical substance): 1.5 | The level of expressed mRNA in the presence of chemical substance/The level of expressed mRNA in the absence of chemical substance (yeast gene YOL150C): 1.0 | The level of expressed mRNA in the presence of chemical substance/The level of expressed mRNA in the absence of chemical substance (yeast gene YOL162W, incubated two hours with chemical substance): 0.9 | The level of expressed mRNA in the presence of chemical substance/The level of expressed mRNA in the absence of chemical substance (yeast gene YOR019W, incubated two hours with chemical substance): 1.4 | The level of expressed mRNA in the presence of chemical substance/The level of expressed mRNA in the absence of chemical substance (yeast gene YOR129C): 1.3 | The level of expressed mRNA in the presence of chemical substance/The level of expressed mRNA in the absence of chemical substance (yeast gene YOR197W, incubated two hours with chemical substance): 0.6 | The level of expressed mRNA in the presence of chemical substance/The level of expressed mRNA in the absence of chemical substance (yeast gene YPL087W, incubated two hours with chemical substance): 0.6 | The level of expressed mRNA in the presence of chemical substance/The level of expressed mRNA in the absence of chemical substance (yeast gene YPL196W, incubated two hours with chemical substance): 1.5 | The level of expressed mRNA in the presence of chemical substance/The level of expressed mRNA in the absence of chemical substance (yeast gene YPL206C, incubated two hours with chemical substance): 0.7 | The level of expressed mRNA in the presence of chemical substance/The level of expressed mRNA in the absence of chemical substance (yeast gene YPL222W, incubated two hours with chemical substance): 1.2 | The level of expressed mRNA in the presence of chemical substance/The level of expressed mRNA in the absence of chemical substance (yeast gene YPL272C): 1.3 | The level of expressed mRNA in the presence of chemical substance/The level of expressed mRNA in the absence of chemical substance (yeast gene YPR023C, incubated two hours with chemical substance): 1.1 | The level of expressed mRNA in the presence of chemical substance/The level of expressed mRNA in the absence of chemical substance (yeast gene YPR150W): 1.3 | The level of expressed mRNA in the presence of chemical substance/The level of expressed mRNA in the absence of chemical substance (yeast gene YPR151C, incubated two hours with chemical substance): 1.3
